According to PMC11785687, “An efficient methodological approach for synthesis of selenopyridines: generation, reactions, anticancer activity, EGFR inhibitory activity and molecular docking studies” (Molecular Diversity, 2024):
Like-named read-outs stand apart in the source and are kept apart here.

Assays:
[1] = system: prostate cancer (PC-3) cell line; assay: SRB cytotoxicity assay, PC-3 cells; type: cell-based, human; conditions: for inhibition of cell proliferation / cytotoxic effect (in words), PC-3: tested until 100 µM
Description: (§1) Fig. 3 The effect of synthesized compounds against the highly metastatic cancer cell lines PC-3 and MG-63 cell lines after 72 h incubation and viability was assessed by the SRB assay. Values represent the mean ± SD of three independent experiments
(§2) The SRB assay was used to evaluate the effect of the synthesized selenium containing heterocyclic compounds on cancer cells according to the previous literatures (see Supporting Information).
(§3) The human prostate cancer cells (PC3) and human osteosarcoma cells (MG-63) were obtained from Nawah Scientific Inc. (Mokatam, Cairo, Egypt) and cultured in DMEM (Dulbecco’s modified eagle’s medium), Gibco, USA, supplemented with fetal bovine serum (FBS) at a concentration of 10% and 100 U/mL of penicillin and streptomycin (PS). The Cells were incubated at 37 °C in a humidified environment that contained 5% CO2.
(§4) Cells were seeded in 96-well plates as aliquots of 100 μL cell suspension and incubated in a complete media for 24 h. Afterward, cells were treated with synthesized compounds at diverse concentrations ranging from 0.01 μM to 100 μM for 72 h. Then, cells were fixed at 4 °C for one hour with 150 μL of 10% trichloroacetic acid (TCA). After washing the cells five times with distilled water, 70 μL of sulforhodamine (SRB) solution (0.4% w/v) was added and incubated for 10 min at room temperature in a dark place. Cells were washed with 1% acetic acid three times and allowed to air-dry. Then, 150 μL of Tris pH 10.5 (10 mM) was added, and the absorbance was measured at 540 nm using a BMG LABTECH®- FLUOstar Omega microplate reader (Ortenberg, Germany). Half maximal inhibitory concentrations (IC50) values were calculated for each experiment using GraphPad Prism 6 software. IC50 values were reported as mean ± SD [53].

[2] = system: osteosarcoma (MG-63) cell line; assay: SRB cytotoxicity assay, MG-63 cells; type: cell-based, human; conditions: for inhibition of cell proliferation / cytotoxic effect (in words), MG-63: tested until 100 µM
Description: as §1, §2, §3, §4

[3] = target: T1, EGFR kinase (Homo sapiens, UniProt P00533); assay: EGFR-TK cell-free inhibitory assay; type: biochemical
T1 construct: purchased cloud clone SEA757Hu
T1 sequence (P00533 25-1210): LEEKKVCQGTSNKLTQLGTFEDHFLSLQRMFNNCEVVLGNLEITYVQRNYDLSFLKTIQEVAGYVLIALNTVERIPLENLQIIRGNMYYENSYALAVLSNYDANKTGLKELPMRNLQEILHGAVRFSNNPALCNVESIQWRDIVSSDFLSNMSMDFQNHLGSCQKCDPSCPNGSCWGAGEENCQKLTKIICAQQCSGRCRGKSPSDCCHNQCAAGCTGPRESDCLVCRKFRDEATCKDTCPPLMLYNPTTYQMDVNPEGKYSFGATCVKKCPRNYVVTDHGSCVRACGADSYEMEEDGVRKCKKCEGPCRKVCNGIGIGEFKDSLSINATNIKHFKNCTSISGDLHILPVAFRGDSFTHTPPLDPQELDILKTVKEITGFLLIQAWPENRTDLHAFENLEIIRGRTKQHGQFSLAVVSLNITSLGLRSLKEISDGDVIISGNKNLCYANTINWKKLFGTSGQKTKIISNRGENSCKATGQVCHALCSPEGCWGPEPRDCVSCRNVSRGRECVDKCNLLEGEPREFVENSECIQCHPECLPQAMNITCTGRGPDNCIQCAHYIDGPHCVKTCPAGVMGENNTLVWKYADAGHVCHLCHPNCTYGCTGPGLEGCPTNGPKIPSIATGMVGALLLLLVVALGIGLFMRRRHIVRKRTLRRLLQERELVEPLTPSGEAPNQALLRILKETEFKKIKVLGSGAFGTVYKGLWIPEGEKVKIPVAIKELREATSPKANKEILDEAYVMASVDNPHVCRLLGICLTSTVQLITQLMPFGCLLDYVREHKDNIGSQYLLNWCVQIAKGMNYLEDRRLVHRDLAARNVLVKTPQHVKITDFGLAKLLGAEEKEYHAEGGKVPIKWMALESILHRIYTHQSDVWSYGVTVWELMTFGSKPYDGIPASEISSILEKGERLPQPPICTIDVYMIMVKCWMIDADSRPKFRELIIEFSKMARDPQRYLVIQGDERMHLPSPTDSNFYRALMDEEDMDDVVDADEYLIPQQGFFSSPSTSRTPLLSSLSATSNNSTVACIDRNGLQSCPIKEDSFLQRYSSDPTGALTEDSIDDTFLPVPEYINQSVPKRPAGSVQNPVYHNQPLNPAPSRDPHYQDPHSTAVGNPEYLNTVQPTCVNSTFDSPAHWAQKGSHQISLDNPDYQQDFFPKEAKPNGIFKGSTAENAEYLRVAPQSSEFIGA
Description: A cell-free assay was used to investigate the mechanism of inhibition of EGFR kinase according to the reported method (see Supporting Information).
A cell-free assay was used to investigate the mechanism of inhibition of EGFR kinase according to the reported method. […] 200 µM (EGFR) was used. […] Mean values of two independent replicates for each experiment were used for the interpolation.

[4] = Homo sapiens, PC-3, 72 h, read-out: IC50 values (µM) PC-3, SRB assay, 72 h incubation, mean ± SD
[5] = Homo sapiens, MG-63, 72 h, read-out: IC50 values (µM) MG-63, SRB assay, 72 h incubation, mean ± SD
[6] = read-out: IC50 values (µM) PC-3, SRB assay, 72 h incubation, mean ± SD
[7] = read-out: IC50 values (µM) MG-63, SRB assay, 72 h incubation, mean ± SD
[8] = Homo sapiens, PC-3, 72 h, SRB assay, 72 h incubation, mean ± SD, read-out: IC50 values (µM) PC-3
[9] = Homo sapiens, MG-63, 72 h, SRB assay, 72 h incubation, mean ± SD, read-out: IC50 values (µM) MG-63

## C[Se]c1nc(N)cc(N)c1C#N
other
  melting point: 148 to 150 °C

## N#CC[Se]c1nc(N)c(Br)c(N)c1C#N
other
  melting point: 176 to 178 °C

## N#Cc1c([Se][Se]c2nc(N)c(Sc3ccccc3)c(N)c2C#N)nc(N)c(Sc2ccccc2)c1N
other
  melting point: 198 to 200 °C

## N#Cc1c([Se][Se]c2nc(N)c(Sc3ccc(Cl)cc3)c(N)c2C#N)nc(N)c(Sc2ccc(Cl)cc2)c1N
other
  melting point: 236 to 238 °C

## N#Cc1[se]c2nc(N)cc(N)c2c1N [Compound 2, 3,4,6-triamino-2-cyanoselenopheno[2,3-b]pyridine]
other
  melting point: 258 to 260 °C
[1]; [4]
  IC50: > 100 µM
[1]; SRB assay
  inhibition of cell proliferation / cytotoxic effect (in words), PC-3: without significant inhibition of cell proliferation
[2]; [5]
  IC50: > 100 µM
[2]; SRB assay
  inhibition of cell proliferation / cytotoxic effect (in words), MG-63: without significant inhibition of cell proliferation

## CN(C)c1cc(N)c(C#N)c([Se][Se]c2nc(N(C)C)cc(N)c2C#N)n1 [Compound 4]
other
  melting point: 172 to 174 °C
[1]; [4]
  IC50: 233 ± 2.6 µM
[1]; SRB assay
  inhibition of cell proliferation / cytotoxic effect (in words), PC-3: without significant inhibition of cell proliferation
[2]; [5]
  IC50: 240 ± 3.2 µM
[2]; SRB assay
  inhibition of cell proliferation / cytotoxic effect (in words), MG-63: without significant inhibition of cell proliferation

## N#Cc1[se]c2nc(N)c(Br)c(N)c2c1N [Compound 7, 3,4,6-triamino-5-bromoselenopheno[2,3-b]pyridine-2-carbonitrile]
other
  melting point: 268 to 270 °C
[1]; [4]
  IC50: > 100 µM
[1]; SRB assay
  inhibition of cell proliferation / cytotoxic effect (in words), PC-3: without significant inhibition of cell proliferation
[2]; [5]
  IC50: > 100 µM
[2]; SRB assay
  inhibition of cell proliferation / cytotoxic effect (in words), MG-63: without significant inhibition of cell proliferation

## Nc1nc2[se]c(-c3nc4ccccc4s3)c(N)c2c(N)c1Br [Compound 9, 2-(benzo[d]thiazol-2-yl)-5-bromo-selenopheno[2,3-b]-pyridine-3,4,6-triamine]
[1]; [4]
  IC50: 51.1 ± 3 µM
[1]; SRB assay
  inhibition of cell proliferation / cytotoxic effect (in words), PC-3: low cytotoxic effects
[2]; [5]
  IC50: 62.8 ± 3.45 µM
[2]; SRB assay
  inhibition of cell proliferation / cytotoxic effect (in words), MG-63: low cytotoxic effects

## CC(=O)Nc1cc2c3c(c(C#N)[se]c3n1)N=C(C)N2 [Compound 11, N-(2-cyano-4-methyl-5H-1-seleno-3,5,8-triazaacenaphthylen-7-yl)acetamide]
[1]; [4]
  IC50: 34.7 ± 0.77 µM
[1]; SRB assay
  inhibition of cell proliferation / cytotoxic effect (in words), PC-3: low cytotoxic effects
[2]; [5]
  IC50: 62.2 ± 1.51 µM
[2]; SRB assay
  inhibition of cell proliferation / cytotoxic effect (in words), MG-63: low cytotoxic effects

## N#Cc1[se]c2nc(N)c(N=Nc3ccccc3)c(N)c2c1N [Compound 12a, 3,4,6-Triamino-5-[phenyldiazenyl]selenopheno[2,3-b]pyridine-2-carbonitrile]
[3]
  IC50: 0.301 ± 0.012 µM
[1]; [4]
  IC50: < 4 µM
[1]; [6]
  IC50: 2.69 ± 0.03 µM
[2]; [5]
  IC50: < 4 µM
[2]; [7]
  IC50: 3.45 ± 0.2 µM

## Cc1ccc(N=Nc2c(N)nc3[se]c(C#N)c(N)c3c2N)cc1 [Compound 12b, 3,4,6-Triamino-5-(4-methylphenyl)diazenylselenopheno[2,3-b]pyridine-2-carbonitrile]
[3]
  IC50: 0.123 ± 0.004 µM
[1]; [4]
  IC50: < 4 µM
[1]; [6]
  IC50: 2.59 ± 0.02 µM
[2]; [5]
  IC50: < 4 µM
[2]; [7]
  IC50: 3.37 ± 0.22 µM

## COc1ccc(N=Nc2c(N)nc3[se]c(C#N)c(N)c3c2N)cc1 [Compound 12c, 3,4,6-Triamino-5-[(4-methoxyphenyl)diazenyl]selenopheno[2,3-b]pyridine-2-carbonitrile]
[1]; [4]
  IC50: < 4 µM
[1]; [6]
  IC50: 2.75 ± 0.09 µM
[2]; [5]
  IC50: < 4 µM
[2]; [7]
  IC50: 3.37 ± 0.12 µM

## N#Cc1[se]c2nc(N)c(N=Nc3ccc(Cl)cc3)c(N)c2c1N [Compound 12d, 3,4,6-Triamino-5-[(4-chlorophenyl)diazenyl]selenopheno[2,3-b]pyridine-2-carbonitrile]
[1]; [4]
  IC50: < 4 µM
[1]; [6]
  IC50: 3.08 ± 0.01 µM
[2]; [5]
  IC50: < 4 µM
[2]; [7]
  IC50: 3.93 ± 0.23 µM

## COc1cccc2c1C(=O)c1c(O)c3c(c(O)c1C2=O)C[C@@](O)(C(=O)CO)C[C@@H]3O[C@H]1C[C@H](N)[C@H](O)[C@H](C)O1 [DOX, doxorubicin, reference compound]
[1]; [8]
  IC50: 7.6 ± 0.45 µM
[2]; [9]
  IC50: 9.4 ± 1.1 µM

## CS(=O)(=O)CCNCc1ccc(-c2ccc3ncnc(Nc4ccc(OCc5cccc(F)c5)c(Cl)c4)c3c2)o1 [Lapatinib, lapatinib, reference compound]
[1]; [8]
  IC50: 0.13 ± 0.04 µM
[2]; [9]
  IC50: 0.47 ± 0.03 µM
